The experiment concerns HIV-1 LTR-III G-quadruplex (FAM/TAMRA-labeled LTR-III). Nature of the experiment: FRET melting assay, LTR-III G4. Type of experiment: binding. Conditions: Table S1 primary screening, ligand:ODN 50:1, singlicate. As to the method:
To evaluate stabilizing properties of the ligands in a complex with oligodeoxyribonucleotides (ODNs) melting with fluorescence registration was used. ODN (0.5 μM) (Table 1), labeled with 6-carboxyfluorescein (FAM) and 6-carboxytetramethylrhodamine (TAMRA) at the 5′- and 3′-end, respectively, were folded in lithium cacodylate buffer (10 mM, pH 7.4) with 100 mM KCl by heating at 95 °C for 5 min and gradually cooling to r.t. GFP chromophore analogs (5 mM solution in DMSO) were diluted with the same buffer to the final concentration of 25 μM and mixed with an equal volume of 0.5 μM ODN solution resulting in a molar ratio of 50:1 (total volume was 50 μL). For the titration experiments molar ratios of 20:1 and 2:1 were used. Samples were analyzed using DTprime qPCR system (DNA-Technology LLC, Moscow, Russia). Fluorescence was registered by detection of FAM emission at 520 nm upon excitation at 495 nm in the temperature range of 30–95 °C with 1 °C/min gradient. Tm was determined using the instrument software and ΔTm was calculated relative to ODN Tm in a buffer solution containing 0.25% (v/v) DMSO. The primary and secondary screening were carried out in singlicate and triplicate, respectively.

78 compounds from paper PMC8533149 (Biomolecules, 2021) can be followed below.

Consider `COc1ccc2cc(C(c3ccc(C)cc3)C(c3ccc(C)cc3)c3ccc4cc(OC)ccc4c3)ccc2c1` (stereo not drawn) [M 1362.2], for which the “LTR-III ΔTm” value is -0.6 °C.

With `COc1cc(O)ccc1C=C1N=C(C(F)(F)F)N(C)C1=O` [M 2738c], the “LTR-III ΔTm” value worked out at 0.4 °C.

Regarding `COC(=O)c1noc(C(=O)N2CCCC2)c1-c1ccc(OC)cc1` [SA 561B], the “LTR-III ΔTm” value was -0.6 °C.

As to `COc1cc(C=C2N=C(C(F)(F)F)N(C)C2=O)c(OC)cc1O` [M 2738d], the “LTR-III ΔTm” value stood at 1.4 °C.

In the case of `CCN(CC)c1ccc(C=C2N=C(C)N(C)C2=O)cc1` [M 1661], the “LTR-III ΔTm” value came to 0.4 °C.

On to `CCn1nnc2c(Nc3ccccc3)cccc2c1=O` [M 958A], for which the “LTR-III ΔTm” value was -0.7 °C.

On to `O=C1NC(c2ccccc2)=NC1=Cc1ccc(O)cc1` [X 24], for which the “LTR-III ΔTm” value is -0.5 °C.

Regarding `CC(C)OC(=O)c1noc(=O)c(O)c1-c1cccc2ccccc12` [SA 300B], the “LTR-III ΔTm” value is -0.9 °C.

For `CC(C)(C)[Si](Oc1ccc(C=C2NC(=S)NC2=O)cc1)(c1ccccc1)c1ccccc1` [VZ 2], the “LTR-III ΔTm” value is -0.2 °C.

Consider `CCC1=NC(=Cc2ccc(O)cc2)C(=O)N1C` [GA 04], for which the “LTR-III ΔTm” value was -0.1 °C.

`COc1ccc(C=C2N=C(C=C(SC)c3ccccc3)N(C)C2=O)cc1` [SA 474.1]: the “LTR-III ΔTm” value came to 0 °C.

Consider `CC1=NC(=Cc2ccc[nH]2)C(=O)N1C` [N 815], for which the “LTR-III ΔTm” value was -0.1 °C.

For the compound `COc1c(O)ccc(C=C2N=C(C)N(C)C2=O)c1OC` [N 1027.1], the “LTR-III ΔTm” value was -0.1 °C.

`COc1ccccc1C=CC1=NC(=Cc2ccc(O)cc2)C(=O)N1C` [ccA 20]: the “LTR-III ΔTm” value turned out to be 0.4 °C.

Take `COc1ccc(C=C2N=C(C=C(O)c3cccs3)N(C)C2=O)cc1` [N 539.1]: the “LTR-III ΔTm” value amounted to 0 °C.

With `CC1=NC(=Cc2ccncc2)C(=O)N1CC(=O)O` [ZS 69], the “LTR-III ΔTm” value is -0.4 °C.

For `CCC1=NC(=Cc2c[nH]c3cccc(C)c23)C(=O)N1C` [M 1978], the “LTR-III ΔTm” value was -0.1 °C.

Take `CC(=O)NC(=Cc1ccc(O)cc1)C(=O)NO` [SV 7]: the “LTR-III ΔTm” value was found to be 0 °C.

As for `CCNc1ccc2cc(Br)ccc2c1` [N 576.2], the “LTR-III ΔTm” value is 0 °C.

On to `CCOc1cc(C=C2N=C(C)N(C)C2=O)ccc1O` [M 2486], for which the “LTR-III ΔTm” value is 0 °C.

In the case of `CC1=NC(=Cc2ccc(C)o2)C(=O)N1C` [N 1020], the “LTR-III ΔTm” value was -0.2 °C.

For the compound `CCNCC.CCOC(=O)c1noc(=O)c(O)c1-c1ccccc1` [AL 58], the “LTR-III ΔTm” value was found to be 0.1 °C.

With `CN1C(=O)C(=Cc2ccc(O)cc2)N=C1Cc1ccccc1` [GFP-2-Bn], the “LTR-III ΔTm” value is -1.5 °C.

In the case of `CN(C)c1ccc(C(O)(c2ccc(N(C)C)cc2)c2ccccn2)cc1` [M 1122], the “LTR-III ΔTm” value was -0.6 °C.

Take `CCN(CC)C(=S)Oc1ccc(C=C2N=C(C)N(C)C2=O)cc1` [M 2081]: the “LTR-III ΔTm” value amounted to 0.1 °C.

As for `COc1cc(O)ccc1C=C1N=C(C=Cc2cc(Cl)nc(Cl)c2)N(C)C1=O` [N 960b], the “LTR-III ΔTm” value came to 0.7 °C.

With `COc1ccc(C(N)=C2N=C(C)N(C)C2=O)cc1` [ZS 99], the “LTR-III ΔTm” value was -0.2 °C.

For the compound `CC1=NC(=Cc2cc(F)c(O)c(F)c2)C(=O)N1CCCC(=O)O` [M 894], the “LTR-III ΔTm” value was -0.3 °C.

Take `CN1C(=O)C(=Cc2ccc(O)cc2)N=C1C=Cc1c(F)c(F)c(O)c(F)c1F` [N 893]: the “LTR-III ΔTm” value is -0.4 °C.

Turning to `CN1C(=O)C(=Cc2ccc(O)c(F)c2)N=C1c1ccccc1` [SA 49.1], the “LTR-III ΔTm” value was found to be 0 °C.

Take `CCOC(=O)c1noc(=O)c(O)c1-c1ccc(OC)cc1` [SA 562B]: the “LTR-III ΔTm” value was -1 °C.

`COc1ccc(C=CC2=NC(=Cc3ccnc4ccccc34)C(=O)N2C)cc1` [AL 122]: the “LTR-III ΔTm” value was -0.6 °C.

In the case of `CCCC1=NC(=C(NB(F)F)c2ccccc2)C(=O)N1` [M 1878.1], the “LTR-III ΔTm” value was -1.5 °C.

On to `CSC1=NC(=Cc2ccc(O[Si](c3ccccc3)(c3ccccc3)C(C)(C)C)cc2)C(=O)N1C` [SA 497], for which the “LTR-III ΔTm” value is -0.4 °C.

For `CCCC1=NC(=Cc2ccc(O)cc2)C(=O)N1C` [GA 05], the “LTR-III ΔTm” value is -0.5 °C.

For `CNC(=O)c1cc(C=C2N=C(C=Cc3cc(Br)c(O)c(Br)c3)N(C)C2=O)ccc1O` [ccD 2], the “LTR-III ΔTm” value stood at 0.2 °C.

`CC1=NC(=Cc2ccc(N3CCC3)cc2)C(=O)N1C` [N 710.12]: the “LTR-III ΔTm” value came out at 0.1 °C.

As to `CC1=NC(=C(N)c2ccc(Br)cc2)C(=O)N1C` [ZS 190], the “LTR-III ΔTm” value is -0.5 °C.

`COc1cc(O)ccc1/C=C1N=C(/C=C(\C#N)c2cccs2)N(C)C\1=O` [MID 153]: the “LTR-III ΔTm” value stood at 2 °C.

With `CCCC1=NC(=Cc2ccc(O[Si](c3ccccc3)(c3ccccc3)C(C)(C)C)cc2)C(=O)N1C` [M 1550], the “LTR-III ΔTm” value is -0.1 °C.

Regarding `COc1ccc(C=CC2=NC(=Cc3cc4cc(OC)ccc4cc3OC)C(=O)N2C)cc1` [AI 126], the “LTR-III ΔTm” value was 1.6 °C.

As for `CN1C(=O)C(=Cc2ccc(O)cc2)N=C1CCCCNC(=O)OC(C)(C)C` [Boc-AV-GFP], the “LTR-III ΔTm” value came out at 0.2 °C.

On to `CN1C=NC(=Cc2ccc(O)cc2)C1=O` [GA 02], for which the “LTR-III ΔTm” value was -0.4 °C.

For the compound `CC(C)OC(=O)c1noc(C(=O)N2CCOCC2)c1-c1cccc2ccccc12` [SA 343A], the “LTR-III ΔTm” value was -0.4 °C.

For the compound `C=CCN1C(=O)C(=Cc2ccc(O[Si](c3ccccc3)(c3ccccc3)C(C)(C)C)cc2)N=C1C` [M 653], the “LTR-III ΔTm” value is -0.2 °C.

`CCN(CC)c1ccc(C=C2N=C(C(C)=O)N(C)C2=O)cc1` [M 1706]: the “LTR-III ΔTm” value was -0.4 °C.

`CN1C(=O)C(=Cc2ccccc2)N=C1Nc1ccccc1` [M 2385b1]: the “LTR-III ΔTm” value is -0.1 °C.

On to `CC(C)OC(=O)c1noc(=O)c(O)c1-c1ccc(O)cc1` [AL 23], for which the “LTR-III ΔTm” value turned out to be 0 °C.

For `CN1C(=O)C(=Cc2ccc(O)cc2)N=C1C=Cc1cc(Cl)nc(Cl)c1` [N 886], the “LTR-III ΔTm” value is -0.2 °C.

Consider `CC1=NC(=Cc2ccc(O)c(F)c2)C(=O)N1C` [M 556], for which the “LTR-III ΔTm” value is -0.2 °C.

With `CC1=NC(=Cc2cc3c4c(c2)CCCN4CCC3)C(=O)N1C` [X 4], the “LTR-III ΔTm” value came to 1 °C.

Consider `CC1=NC(=Cc2ccc3cc(N4CCOCC4)ccc3c2)C(=O)N1C` [X 002], for which the “LTR-III ΔTm” value was -0.6 °C.

On to `CC(=O)NC(=Cc1ccc([N+](=O)[O-])cc1)C(=O)NC1CCCCC1` [X 28], for which the “LTR-III ΔTm” value is -0.3 °C.

`CCN1C(=O)C(=CC=Cc2ccc(O)cc2)N=C1C` [M 1379.2]: the “LTR-III ΔTm” value is -0.2 °C.

Consider `CCCCN(CCCC)c1cccc(C=C2N=C(C)N(C)C2=O)c1` [M 1600], for which the “LTR-III ΔTm” value is -0.4 °C.

For `COc1cc(O)ccc1C=C1N=C(c2cccs2)N(C)C1=O` [SH 016.3B], the “LTR-III ΔTm” value worked out at 0.9 °C.

As for `CNC(=O)c1onc(C(=O)OC(C)C)c1-c1ccc(N(C)C)cc1` [SA 332.1], the “LTR-III ΔTm” value was -0.4 °C.

For the compound `O=C1NC(=S)SC1=Cc1ccc(O)c(Cl)c1` [SAI 125], the “LTR-III ΔTm” value turned out to be 0.6 °C.

In the case of `CCN(CC)c1ccc(C=C2N=C(C=CC=Cc3ccc(OC)cc3)N(C)C2=O)c(B(F)F)c1` [M 1971c], the “LTR-III ΔTm” value was 0.6 °C.

For the compound `COc1cc(C=C2N=C(C)N(C)C2=O)ccc1O` [M 2491], the “LTR-III ΔTm” value was -0.2 °C.

For the compound `CCN(CC)c1ccc(/C=C2\N=C3C(=O)NCCN3C2=O)cc1` [JL 19], the “LTR-III ΔTm” value came to 0.1 °C.

Regarding `CNC(=O)c1onc(C(=O)OC(C)C)c1-c1ccccc1F` [SA 331A], the “LTR-III ΔTm” value is -0.7 °C.

Take `COc1ccc(-c2c(C(=O)OC(C)C)noc2C(=O)N2CCCC2)cc1` [SA 309]: the “LTR-III ΔTm” value is -0.5 °C.

Regarding `CN1C(=O)C(=Cc2ccc(OCC(NC(=O)OC(C)(C)C)C(=O)O)cc2)N=C1c1ccccc1` (stereo not drawn) [GR 161], the “LTR-III ΔTm” value was -0.2 °C.

In the case of `CNC(=O)C(=Cc1ccc(Br)cc1)NC(=O)c1ccccc1` [GR 83], the “LTR-III ΔTm” value was -0.8 °C.

As for `CC1=NC(=Cc2ccc(O)cc2)C(=O)N1C` [GA 03], the “LTR-III ΔTm” value came to 0.5 °C.

`CN1C(=O)C(=Cc2ccc(O)cc2)N=C1C=Cc1ccc(O)c(Br)c1` [ccA 10]: the “LTR-III ΔTm” value worked out at 0.7 °C.

In the case of `C[C@H](CS)C(=O)N1CCC[C@H]1C(=O)O` [SA 333], the “LTR-III ΔTm” value was -0.4 °C.

On to `CCN(CC)c1ccc(C=C2N=C(C)N(CCCC(=O)O)C2=O)cc1` [GC 03], for which the “LTR-III ΔTm” value stood at 0.4 °C.

Turning to `O=C1NC(=S)SC1=Cc1ccc(O)c(C(=O)O)c1` [SAI 120], the “LTR-III ΔTm” value was 0.6 °C.

In the case of `CN1C(=O)C(=Cc2ccc(O)cc2)N=C1C(=O)c1ccccc1` [M 2372a], the “LTR-III ΔTm” value is 0.1 °C.

As for `Oc1cccc2nc3ccccc3nc12` [M 1255], the “LTR-III ΔTm” value is -0.6 °C.

`CN1C(=O)C(=Cc2ccc(O)cc2)N=C1C=Cc1ccccc1` [M 996a]: the “LTR-III ΔTm” value is 0.1 °C.

Turning to `CCOC(=O)CN1C(=O)C(=Cc2ccc(OC)cc2)N=C1C` [SA 117], the “LTR-III ΔTm” value is -0.2 °C.

Consider `CNC(=O)C(=Cc1ccccc1)N=[N+]=[N-]` [N 830b], for which the “LTR-III ΔTm” value is -0.2 °C.

As for `O=C1NC(=S)SC1=Cc1cc(F)c(O)c(F)c1` [SAI 118], the “LTR-III ΔTm” value was 0 °C.

On to `COc1cc(O)ccc1C=C1N=C(C=CN2CCCC2)N(C)C1=O` [N 1118], for which the “LTR-III ΔTm” value was 3 °C.

In the case of `CCN(CC)c1ccc2c(C=CN(C)C)cc(=O)oc2c1` [N 582.1], the “LTR-III ΔTm” value came out at 0 °C.
